Measured values from patent US9468209B2, “Method for eradicating weeds with derivatives of 3-acetyl-5-sec-butyl-4-hydroxy-3-pyrrolin-2-one” (priority 2012, dated 2016).

Tests used:
[1] = test system: fluorescence of chlorophyll; experiment: Fluorescence of chlorophyll of treated Crofton weed leaves; assay type: biochemical; details: 50 μg/mL, strong light 12 hours
Experimental: (§1) Compounds 10-57 were dissolved in small amount of methanol. The solutions were then diluted with distilled water to a concentration of 50 μg/mL. A mixture of methanol and water in the same ratio as the sample solution was also prepared and used as control in the experiment. The healthy leaves of Crofton weed were washed in water for 30 minutes and then rinsed with distilled water. The clean and tissue dried leaves were placed in petri dish with the back-side of the leaves facing up. Wet filter paper was also placed in the in petri dish for moisture control. Water, methanol and chemical solutions of the analogues were applied to the back-side of each leaf. Test sample was then placed in vacuum chamber at 25° C. for 15 min followed by exposure to the strong light (400 μM m^−2 s^−1) for 12 hours. The leaf sample went through a series of test, and the Hill reaction rate, the electron transfer activity and fluorescence of chlorophyll were measured. Four leaves were used for each treatment and each test was repeated three times.

Crofton weed = experiment: Needle puncture pathogenic test on slightly wounded leaf of Crofton weed; assay type: in vivo; details: for Time of Disease spot / Average diameter of spot after 24 h / Time / Average diameter of the damage spot after 24 h: 50 μg/mL, 25° C., natural light; for Time / Average diameter of the damage spot after 24 h: salts, Crofton weed
Experimental: 3-acetyl-5-sec-butyl-4-hydroxy-3-pyrrolin-2-one analogs were dissolved in a small amount of methanol and diluted with water to a concentration of 5-100 μg/g. A pathogenic test was conducted by placing the toxic liquid on the slightly wounded leaf of Crofton weed with a needle. The test has shown that the pathogenic capability of 3-acetyl-5-sec-butyl-4-hydroxy-3-pyrrolin-2-one analogs with respect to Crofton weed increases with the increase of concentration. The spot diameter caused on the leaf of Crofton weed after 24 hours was 2 mm at 50 μg/g.
3-acetyl-5-sec-butyl-4-hydroxy-3-pyrrolin-2-one analogue (Table 3, compounds 10-57) was dissolved in small amount of methanol. The solution was then diluted with distilled water to a concentration of 50 μg/mL. Methanol solution with same concentration and pure distilled water were used as control of the experiment. A pathogenic test was conducted by placing the toxic liquid on the slightly wounded leaf of Crofton weed with a needle. The experiment was carried out at 25° C. under the natural light and each test was repeated 6 times. It was measure the diameter of the spot after 24 h. […] The size of the side chain also has an effect on their activity.
Fourteen salts of 3-acetyl-5-sec-butyl-4-hydroxy-3-pyrrolin-2-one analogs were dissolved in small amount of methanol and diluted with distilled water to a concentration of 50 μg/mL. Methanol/water mixture was also prepared and used as control. Needle puncture method was used for the test on the small pieces of Crofton weed. Each treatment was repeated six times or more. The test samples were kept under natural light at 25° C. for 24 hours. The diameters of damaged spot of the plant leaves were measured by vernier caliper.

Hill reaction = Hill reaction activity of treated Crofton weed leaves; assay type: biochemical; details: 50 μg/mL, strong light 12 hours
Experimental: as §1

photosystem II = experiment: PSII oxygen evolution / electron transfer activity of treated Crofton weed leaves; assay type: biochemical; details: 50 μg/mL, strong light 12 hours
Experimental: as §1

| Compound | Fv/Fm [1] | Time of Disease spot (Crofton weed; Crofton weed leaf) | Average diameter of spot after 24 h (Crofton weed; Crofton weed leaf, 24 h) | Activity of Hill Reaction (Hill reaction) | PSII Activity of oxygen evolution (photosystem II) | Time (Crofton weed) | Average diameter of the damage spot after 24 h (Crofton weed; 24 h) | other results |
| --- | --- | --- | --- | --- | --- | --- | --- | --- |
| CC(=O)C1=C(O)CNC1=O [Compound 10] | 0.79 | 29 ± 6.30 h | 1.11 ± 0.16 mm | 84.32 uMO2/mgChlh | 47.55 uMO2/mgChlh |  |  |  |
| Manganese salt of 3-acetyl-5-ethyl-4-hydroxy-1H-pyrrol-2(5H)-one [i] |  |  |  |  |  | 14.3 ± 3.15 h | 3.24 ± 0.33 mm |  |
| Sodium salt of 3-acetyl-5-ethyl-4-hydroxy-1H-pyrrol-2(5H)-one |  |  |  |  |  | 14.5 ± 1.8 h | 3.11 ± 0.54 mm |  |
| CCCCC1(C)NC(=O)C(C(C)=O)=C1O (stereo not shown) [Compound 29] |  | 12.1 ± 3.75 h | 5.77 ± 1.15 mm |  |  |  |  |  |
| CCCCCCCCC1NC(=O)C(C(C)=O)=C1O (stereo not shown) [Compound 18] | 0.80 | 12.00 ± 0.48 h | 8.27 ± 0.61 mm | 67.27 uMO2/mgChlh | 39.98 uMO2/mgChlh |  |  |  |
| CCCCC1(CCCC)NC(=O)C(C(C)=O)=C1O [Compound 28] | 0.82 | 16.9 ± 2.25 h | 2.40 ± 0.11 mm | 75.03 uMO2/mgChlh | 31.76 uMO2/mgChlh |  |  |  |
| CCOCCC(=O)C1=C(O)C(C(C)CC)NC1=O (stereo not shown) [Compound 45] | 0.79 | 20.3 ± 0.57 h | 2.73 ± 0.73 mm | 41.00 uMO2/mgChlh | 27.04 uMO2/mgChlh |  |  |  |
| CCC1=C(O)C(C(C)CC)NC1=O (stereo not shown) [Compound 4] | 0.83 |  |  | 51.13 uMO2/mgChlh | 28.01 uMO2/mgChlh |  |  | Avg. diameter of the spot after 24 h (Crofton weed; Crofton weed leaf, 24 h, analogs with formula (I) and (II)): 2.97 ± 0.01 mm; Time of disease spot to occur (Crofton weed; Crofton weed leaf, analogs with formula (I) and (II)): 18.5 ± 1.55 h |
| CCC(C)C1NC(=O)C(C(=O)Cc2ccc([N+](=O)[O-])cc2)=C1O (stereo not shown) [Compound 52] | 0.82 | 15.3 ± 1.72 h | 3.83 ± 1.03 mm | 53.13 uMO2/mgChlh | 36.86 uMO2/mgChlh |  |  |  |
| CC(=O)C1=C(O)C(CCC(N)=O)NC1=O (stereo not shown) [Compound 37] |  | 24 ± 0.08 h | 1.64 ± 0.25 mm |  |  |  |  |  |
| Sodium salt of 3-acetyl-4-hydroxy-1H-pyrrol-2(5H)-one |  |  |  |  |  | 26 ± 7.30 h | 1.34 ± 0.08 mm |  |
| CCC(C)C1NC(=O)C(C(=O)NCc2ccccc2)=C1O (stereo not shown) [Compound 49] |  | 23.2 ± 2.86 h | 2.47 ± 0.08 mm |  |  |  |  |  |
| CCC(C)C1NC(=O)C(C(=O)CCCl)=C1O (stereo not shown) [Compound 43] | 0.83 | 20.1 ± 1.15 h | 2.30 ± 0.28 mm | 63.35 uMO2/mgChlh | 47.80 uMO2/mgChlh |  |  |  |
| Zinc salt of 3-acetyl-5-ethyl-4-hydroxy-1H-pyrrol-2(5H)-one [j] |  |  |  |  |  | 15.1 ± 4.00 h | 2.91 ± 0.02 mm |  |
| Copper salt of 3-acetyl-5-ethyl-4-hydroxy-1H-pyrrol-2(5H)-one |  |  |  |  |  | 21.6 ± 3.05 h | 1.22 ± 0.25 mm |  |
| CCCCCCCC1NC(=O)C(C(C)=O)=C1O (stereo not shown) [Compound 17] | 0.82 | 9.5 ± 2.36 h | 7.94 ± 1.30 mm | 57.13 uMO2/mgChlh | 27.04 uMO2/mgChlh |  |  |  |

| Compound | Fv/Fm [1] | Time of Disease spot (Crofton weed; Crofton weed leaf) | Average diameter of spot after 24 h (Crofton weed; Crofton weed leaf, 24 h) | Activity of Hill Reaction (Hill reaction) | PSII Activity of oxygen evolution (photosystem II) | Time (Crofton weed) | Average diameter of the damage spot after 24 h (Crofton weed; 24 h) | other results |
| --- | --- | --- | --- | --- | --- | --- | --- | --- |
| Zinc salt of 3-acetyl-4-hydroxy-5,5-dimethyl-1H-pyrrol-2(5H)-one |  |  |  |  |  | 18.2 ± 2.50 h | 2.63 ± 0.06 mm |  |
| Sodium salt of 3-acetyl-4-hydroxy-5-propyl-1H-pyrrol-2(5H)-one |  |  |  |  |  | 10.2 ± 2.50 h | 5.07 ± 0.11 mm |  |
| Ammonium salt of 3-acetyl-5-ethyl-4-hydroxy-1H-pyrrol-2(5H)-one |  |  |  |  |  | 10.3 ± 1.50 h | 4.97 ± 1.01 mm |  |
| CCCCC1(CC)NC(=O)C(C(C)=O)=C1O (stereo not shown) [Compound 30] | 0.79 | 13.3 ± 2.00 h | 4.53 ± 1.03 mm | 47.33 uMO2/mgChlh | 22.78 uMO2/mgChlh |  |  |  |
| CCC(C)C1NC(=O)C(C(=O)OCCc2ccccc2)=C1O (stereo not shown) [Compound 46] | 0.82 | 22.1 ± 1.35 h | 2.31 ± 0.44 mm | 58.78 uMO2/mgChlh | 43.67 uMO2/mgChlh |  |  |  |
| CC(=O)C1=C(O)C(CCC(=O)O)NC1=O (stereo not shown) [Compound 35] |  | 26.4 ± 0.12 h | 1.27 ± 0.02 mm |  |  |  |  |  |
| Calcium salt of 3-acetyl-5-ethyl-4-hydroxy-1H-pyrrol-2(5H)-one [g] |  |  |  |  |  | 18.7 ± 3.00 h | 2.29 ± 0.19 mm |  |
| CCCC(C)C1NC(=O)C(C(C)=O)=C1[O-].[Na+] (stereo not shown) [m, Sodium salt of 3-acetyl-4-hydroxy-5-(Pentan-2-yl)-1H-pyrrol-2(5H)-one] |  |  |  |  |  | 8.5 ± 2.00 h | 8.27 ± 1.72 mm |  |
| CCC(=O)C1=C(O)C(C(C)CC)NC1=O (stereo not shown) [Compound 42] |  | 19.4 ± 2.50 h | 2.24 ± 0.45 mm |  |  |  |  |  |
| Iron salt of 3-acetyl-5-ethyl-4-hydroxy-1H-pyrrol-2(5H)-one [k] |  |  |  |  |  | 17.2 ± 0.95 h | 1.72 ± 0.15 mm |  |
| Magnesium (II) salt of 3-acetyl-5-ethyl-4-hydroxy-1H-pyrrol-2(5H)-one |  |  |  |  |  | 17.5 ± 1.50 h | 2.88 ± 0.10 mm |  |
| CC(=O)C1=C(O)C(CC(N)=O)NC1=O (stereo not shown) [Compound 36] |  | 21.9 ± 0.23 h | 1.54 ± 0.07 mm |  |  |  |  |  |
| Sodium salt of 3-acetyl-4-hydroxy-5-(prop-1-enyl)-1H-pyrrol-2(5H)-one |  |  |  |  |  | 16.8 ± 1.85 h | 2.42 ± 0.05 mm |  |
| Sodium salt of 3-acetyl-4-hydroxy-5-methyl-1H-pyrrol-2(5H)-one [b] |  |  |  |  |  | 19.5 ± 0.5 h | 2.21 ± 0.18 mm |  |
| CCCC(C)C1NC(=O)C(C(C)=O)=C1O (stereo not shown) [Compound 31] |  | 10.8 ± 2.00 h | 5.93 ± 1.35 mm |  |  |  |  |  |
| CCC1NC(=O)C(C(C)=O)=C1O.[K] (stereo not shown) [f, Potassium salt of 3-acetyl-5-ethyl-4-hydroxy-1H-pyrrol-2(5H)-one] |  |  |  |  |  | 14.2 ± 2.00 h | 3.72 ± 0.28 mm |  |
